The results in this text go back to US20260207559A1, “(S)-(3-(1-(1H-IMIDAZOL-4-YL)ETHYL)-2-METHYLPHENYL)METHANOL FOR TREATMENT OF AGITATION” (Alceptor Therapeutics, Inc., priority 2022, published 2026).

One series is described as follows: in vivo. The protocol:
(§1) Groups of rodents were dosed either intravenously or orally in order to determine certain pharmacokinetic properties, including oral bioavailability and half-life. Bioavailability was determined by comparing plasma exposure following IV dosing in a [19% hydroxypropyl beta-cyclodextrin/5% DMSO in saline] formulation with plasma exposure following dosing by oral gavage in a 0.5% methyl cellulose formulation.

In series [1] the test system is 7 different human CYP enzymes. The experiment in a line: Metabolism by panel of human recombinant CYP enzymes, % compound remaining. Particulars: all incubations (7 CYPs); 2 µM; up to 60 min; NADPH.
The nature of series [2]: Pharmacokinetics in rodents, plasma and brain (species not specified). The protocol:
as §1

A further series relates to laboratory rodents. An excerpt: The resident-intruder model is an established preclinical model of aggression and agitation, and allows spontaneous and natural expression of both offensive aggression/agitation and defensive behavior in laboratory rodents in a semi natural laboratory setting. […] The latency to attack and the number of attacks are measures of agitation.

The nature of series [3]: Pharmacokinetics after IV or oral dosing in mice. The protocol: as §1
The test system of the next series is Mice. Particulars: for Inhibition of distance travelled: 30-minute session. The procedure: Sedation is assessed in the Locomotor Activity (LMA) model. Mice are placed in a novel chamber and their exploratory activity during a 30-minute session is measured as distance traveled.
In a further series the target is CYP2D6 (Homo sapiens, UniProt P10635). As to conditions: recombinant enzyme, 1 h, 2 µM.
The next series concerns the target CYP2C8 (Homo sapiens, UniProt P10632). As to conditions: recombinant enzyme, 1 h, 2 µM.
For a further series, the target named is CYP2B6 (Homo sapiens, UniProt P20813). As to conditions: recombinant enzyme, 1 h, 2 µM.
Another series deals with CYP2C19 (Homo sapiens, UniProt P33261). As to conditions: recombinant enzyme, 1 h, 2 µM.
A further series concerns the target CYP3A4 (Homo sapiens, UniProt P08684). As to conditions: recombinant enzyme, 1 h, 2 µM.

Where two headings read alike, the source gives them in different places.

Chain of CYP3A4 (P08684 whole entry): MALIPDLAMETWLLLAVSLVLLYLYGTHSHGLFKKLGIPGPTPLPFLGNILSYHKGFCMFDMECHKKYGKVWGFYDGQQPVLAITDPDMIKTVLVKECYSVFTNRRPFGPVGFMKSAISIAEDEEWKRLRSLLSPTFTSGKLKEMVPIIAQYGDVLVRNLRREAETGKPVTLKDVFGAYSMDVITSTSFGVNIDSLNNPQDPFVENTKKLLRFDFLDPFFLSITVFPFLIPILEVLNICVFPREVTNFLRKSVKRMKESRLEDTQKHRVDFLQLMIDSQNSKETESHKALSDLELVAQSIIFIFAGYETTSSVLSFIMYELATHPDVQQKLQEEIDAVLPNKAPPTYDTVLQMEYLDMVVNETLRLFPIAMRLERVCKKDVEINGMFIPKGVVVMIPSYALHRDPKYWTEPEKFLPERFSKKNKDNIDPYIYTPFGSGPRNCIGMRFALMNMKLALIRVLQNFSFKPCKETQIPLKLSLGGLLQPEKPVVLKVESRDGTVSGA
Chain of CYP2D6 (P10635 whole entry): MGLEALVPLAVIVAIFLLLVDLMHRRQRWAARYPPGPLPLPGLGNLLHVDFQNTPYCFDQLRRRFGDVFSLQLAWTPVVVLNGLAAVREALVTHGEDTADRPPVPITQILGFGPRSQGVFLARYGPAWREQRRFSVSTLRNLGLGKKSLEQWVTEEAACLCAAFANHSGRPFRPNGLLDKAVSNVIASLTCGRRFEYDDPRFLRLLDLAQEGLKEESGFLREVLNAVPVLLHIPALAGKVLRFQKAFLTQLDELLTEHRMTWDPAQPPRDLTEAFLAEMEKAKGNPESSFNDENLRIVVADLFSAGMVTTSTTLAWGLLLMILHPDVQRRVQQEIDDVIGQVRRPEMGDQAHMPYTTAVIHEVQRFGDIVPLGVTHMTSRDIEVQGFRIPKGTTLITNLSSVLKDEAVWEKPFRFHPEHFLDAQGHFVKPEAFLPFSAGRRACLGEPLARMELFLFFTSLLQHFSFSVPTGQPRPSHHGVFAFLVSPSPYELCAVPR
Chain of CYP2C8 (P10632 whole entry): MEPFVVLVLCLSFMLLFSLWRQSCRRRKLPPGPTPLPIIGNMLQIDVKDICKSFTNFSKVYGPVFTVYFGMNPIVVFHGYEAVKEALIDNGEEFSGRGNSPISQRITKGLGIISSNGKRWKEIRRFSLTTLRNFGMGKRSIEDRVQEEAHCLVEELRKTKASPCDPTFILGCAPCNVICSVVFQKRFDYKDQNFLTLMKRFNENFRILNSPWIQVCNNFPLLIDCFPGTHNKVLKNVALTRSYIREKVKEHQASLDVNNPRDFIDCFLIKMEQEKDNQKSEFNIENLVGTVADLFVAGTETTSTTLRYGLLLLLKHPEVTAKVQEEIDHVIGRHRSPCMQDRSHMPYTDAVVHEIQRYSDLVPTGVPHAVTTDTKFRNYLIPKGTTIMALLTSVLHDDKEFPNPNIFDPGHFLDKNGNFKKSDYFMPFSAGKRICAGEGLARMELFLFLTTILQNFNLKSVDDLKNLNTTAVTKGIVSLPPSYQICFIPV
Chain of CYP2B6 (P20813 whole entry): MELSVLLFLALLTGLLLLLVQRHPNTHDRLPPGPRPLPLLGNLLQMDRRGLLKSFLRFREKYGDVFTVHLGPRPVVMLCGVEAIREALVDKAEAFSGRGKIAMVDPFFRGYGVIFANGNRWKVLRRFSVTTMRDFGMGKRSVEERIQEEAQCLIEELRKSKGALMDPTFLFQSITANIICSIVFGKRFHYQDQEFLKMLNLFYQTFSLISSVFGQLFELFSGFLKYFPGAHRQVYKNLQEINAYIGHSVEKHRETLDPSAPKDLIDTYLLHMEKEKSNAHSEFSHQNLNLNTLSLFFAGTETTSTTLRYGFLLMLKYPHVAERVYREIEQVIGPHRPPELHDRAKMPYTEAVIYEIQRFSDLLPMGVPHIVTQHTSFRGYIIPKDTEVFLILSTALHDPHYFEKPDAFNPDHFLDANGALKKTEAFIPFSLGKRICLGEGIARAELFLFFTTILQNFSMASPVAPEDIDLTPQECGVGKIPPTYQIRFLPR
Chain of CYP2C19 (P33261 whole entry): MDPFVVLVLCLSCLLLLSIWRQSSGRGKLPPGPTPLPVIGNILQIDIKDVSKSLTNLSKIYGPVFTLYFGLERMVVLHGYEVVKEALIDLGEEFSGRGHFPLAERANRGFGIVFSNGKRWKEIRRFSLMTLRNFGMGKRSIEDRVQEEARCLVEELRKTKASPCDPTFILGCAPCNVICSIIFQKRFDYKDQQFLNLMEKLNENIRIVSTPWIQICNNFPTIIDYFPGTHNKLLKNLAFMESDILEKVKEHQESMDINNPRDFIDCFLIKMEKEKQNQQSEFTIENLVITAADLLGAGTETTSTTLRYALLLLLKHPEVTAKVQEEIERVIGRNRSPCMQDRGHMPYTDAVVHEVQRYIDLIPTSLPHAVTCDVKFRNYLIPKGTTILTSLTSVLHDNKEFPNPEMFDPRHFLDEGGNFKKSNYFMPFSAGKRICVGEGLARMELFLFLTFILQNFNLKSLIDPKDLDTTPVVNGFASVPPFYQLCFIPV

Take `Cc1c(CO)cccc1[C@H](C)c1c[nH]cn1`: the bioavailability in the series “in vivo” (rat, in vivo) is no more than 34%; in [3] (mouse, plasma, oral) it was no more than 51%. Moreover, the “Time to maximum plasma concentration” value in “in vivo” (rats) was no more than 17 min; in [3] (mice), no more than 10 min. For the same compound, the “Concentration as % of the starting concentration” value in [1] is greater than 90%. Further, the “Mean decrease of levels in plasma and brain” value in series [2] (between 2 and 8 hrs) is less than 2 fold. Besides, in [2] (brain), the “Time to achieve pharmacological concentrations in the brain” value is recorded as no more than 30 minutes. In series [2] (plasma, po), this compound yielded a half-life of 4.2 to 7 h. In addition, the “Half-life relative to dexmedetomidine (longer)” value in series [2] (rodents (mice and rats), plasma, oral) is 2- to 4 fold. In addition, in the series with laboratory rodents (1 mg/kg), the “Activity in resident-intruder model” value is given as “minimal activity”. In the series on Mice (1 mg/kg), the “Sedation in LMA model” value is on record as “minimally sedating”. For the same compound, the “Inhibition of distance travelled” value is “about 25%” with Mice (2 mg/kg) and less than 50% in the series on Mice (3 mg/kg). For the same compound, the “Maximum achievable level of activity in the LMA model” value in the series on Mice (compared with dexmedetomidine) is recorded as “less than the maximum achievable level of activity with dexmedetomidine”.

In turn, `Cc1c(CO)cccc1[C@@H](C)c1c[nH]cn1` [(R)-(3-(1-(1H-imidazol-4-yl)ethyl)-2-methylphenyl)methanol] came in with a bioavailability in the series “in vivo” (rat, in vivo, po) of 7%.

For `Cc1cccc([C@H](C)c2cnc[nH]2)c1C` [dexmedetomidine], in “in vivo” (rat, in vivo, po), the bioavailability was 8.6%. This compound also had a half-life in the series “in vivo” (rat, in vivo, po) of 2 h. Also, the “% of compound remaining” value was determined as 7% at CYP2D6; 84% at CYP2C8; 28% at CYP2B6; 74% on CYP2C19; 89% at CYP3A4. The Inhibition of attacks in the series with laboratory rodents (0.2 mg/kg) was 20%.
